We go through 15 compounds from patent US12049450B2, “Pyridyloxy-carboxylate derivative and preparation method therefor, herbicidal composition, and use” (Qingdao Kingagroot Chemical Compound Co., Ltd., priority 2018, dated 2024).

Common to all, as to assay type: in vivo
One data set concerns Galium spurium. As to the kind of experiment: Post-emergence test experiment (greenhouse pot, spray at 2-3 leaf stage). The settings on record: 1000 g/ha; post-emergence spray at 2-3 leaf stage; assessed after 3 weeks; fresh weight inhibition rate. Summed up: (§1)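 Activity graded levels 0-5 by fresh-weight inhibition (level 5 above 85%, level 0 below 5%), assessed 3 weeks after treatment. Plants grown in greenhouse pots were sprayed post-emergence at 2-3 leaves using acetone/tween-80 solutions with methyl oleate synergist (1.5 L/ha).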

A further data set deals with Monochoria vaginalis. Described as above. The conditions noted are these: 1000 g/ha; post-emergence spray at 2-3 leaf stage; assessed after 3 weeks; fresh weight inhibition rate. Summed up: as §1
In another data set the test system is Abutilon theophrasti. Described as above. The conditions noted are these: 1000 g/ha; post-emergence spray at 2-3 leaf stage; assessed after 3 weeks; fresh weight inhibition rate. Summed up: as §1
In a further data set the test system is Soybean. As to the kind of experiment: Spray drift test, application by unmanned gyroplane, soybean field at 10 meters. The conditions noted are these: 600 g/ha, gyroplane at 1 m, gentle breeze. The procedure: Broadleaf crops are very sensitive to hormonal herbicides, therefore crop injuries are more likely to occur in case of spray drifting. Tests were conducted in gentle breeze for the compounds of the present invention. The formulation of the compounds of the present invention was applied by DJI unmanned gyroplane with application height of 1 m and water volume of 20 kg/ha. The use rate was 600 g/ha. The active ingredient was dissolved by acetone and diluted to aqueous solution of Tween 80. There's a soybean field at 10 meters from the application area and the height of soybean plants were about 15 cm at the application time.

The test system of another data set is Echinochloa crusgalli. As to the kind of experiment: Post-emergence test experiment (greenhouse pot, spray at 2-3 leaf stage). The conditions noted are these: 1000 g/ha; post-emergence spray at 2-3 leaf stage; assessed after 3 weeks; fresh weight inhibition rate. Summed up:
as §1

Another data set relates to Digitaria sanguinalis. The data set is described as above. The settings on record: 1000 g/ha; post-emergence spray at 2-3 leaf stage; assessed after 3 weeks; fresh weight inhibition rate. Summed up: as §1

Turning to `CC(C)C(Oc1nc(F)c(Cl)c(N)c1Cl)C(=O)OCc1ccccc1` (stereo not shown) [Compound 27], the “Activity level (growth inhibition rate) Galium spurium” value in the data set with Galium spurium is given as 5 (Level 5: the growth inhibition rate is greater than 85%). Also, the “Activity level (growth inhibition rate) Monochoria Vaginalis” value in the data set on Monochoria vaginalis is reported as 5 (Level 5: the growth inhibition rate is greater than 85%). Also, the “Activity level (growth inhibition rate) Abutilon theophrasti” value in the data set on Abutilon theophrasti is recorded as 5 (Level 5: the growth inhibition rate is greater than 85%). Also, the “Soybean, injury level by spray drift” value in the data set on Soybean was 0 (Level 0: the growth inhibition rate is less than 5%).

Consider `Nc1c(Cl)c(F)nc(OC(C(=O)OCc2ccccc2)C(F)(F)F)c1Cl` (stereo not shown) [Compound 41], for which, in the data set with Galium spurium, the “Activity level (growth inhibition rate) Galium spurium” value is 5 (Level 5: the growth inhibition rate is greater than 85%). Also, in the data set on Monochoria vaginalis, the “Activity level (growth inhibition rate) Monochoria Vaginalis” value is 5 (Level 5: the growth inhibition rate is greater than 85%). Also, the “Activity level (growth inhibition rate) Abutilon theophrasti” value with Abutilon theophrasti was 5 (Level 5: the growth inhibition rate is greater than 85%). The “Soybean, injury level by spray drift” value in the data set on Soybean was 0 (Level 0: the growth inhibition rate is less than 5%).

`N#CC(Oc1nc(F)c(Cl)c(N)c1Cl)C(=O)OCc1ccccc1` (stereo not shown) [Compound 43]: the “Activity level (growth inhibition rate) Galium spurium” value in the data set on Galium spurium is on record as 5 (Level 5: the growth inhibition rate is greater than 85%). In addition, the “Activity level (growth inhibition rate) Monochoria Vaginalis” value in the data set with Monochoria vaginalis is 5 (Level 5: the growth inhibition rate is greater than 85%). Besides, in the data set with Abutilon theophrasti, the “Activity level (growth inhibition rate) Abutilon theophrasti” value was 5 (Level 5: the growth inhibition rate is greater than 85%). In addition, the “Soybean, injury level by spray drift” value in the data set on Soybean is 0 (Level 0: the growth inhibition rate is less than 5%).

Consider `CN(C)CC(Oc1nc(F)c(Cl)c(N)c1Cl)C(=O)SCc1ccccc1` (stereo not shown) [Compound 46], for which, in the data set on Galium spurium, the “Activity level (growth inhibition rate) Galium spurium” value is 5 (Level 5: the growth inhibition rate is greater than 85%). For the same compound, the “Activity level (growth inhibition rate) Monochoria Vaginalis” value with Monochoria vaginalis is given as 5 (Level 5: the growth inhibition rate is greater than 85%). The “Activity level (growth inhibition rate) Abutilon theophrasti” value in the data set on Abutilon theophrasti is given as 5 (Level 5: the growth inhibition rate is greater than 85%). In the data set with Soybean, the “Soybean, injury level by spray drift” value is 0 (Level 0: the growth inhibition rate is less than 5%).

For the compound `COC(Oc1nc(F)c(Cl)c(N)c1Cl)C(=O)SCc1ccccc1` (stereo not shown) [Compound 50], the “Activity level (growth inhibition rate) Galium spurium” value in the data set with Galium spurium is recorded as 5 (Level 5: the growth inhibition rate is greater than 85%). For the same compound, the “Activity level (growth inhibition rate) Monochoria Vaginalis” value with Monochoria vaginalis is 5 (Level 5: the growth inhibition rate is greater than 85%). In addition, in the data set with Abutilon theophrasti, the “Activity level (growth inhibition rate) Abutilon theophrasti” value is 5 (Level 5: the growth inhibition rate is greater than 85%). Further, the “Soybean, injury level by spray drift” value in the data set with Soybean is 0 (Level 0: the growth inhibition rate is less than 5%).

For `CC(Oc1nc(F)c(Cl)c(N)c1Cl)C(=O)SCc1ccccc1Br` (stereo not shown) [Compound 229], the “Activity level (growth inhibition rate) Echinochloa crusgalli” value with Echinochloa crusgalli was 5 (Level 5: the growth inhibition rate is greater than 85%). The “Activity level (growth inhibition rate) Galium spurium” value in the data set with Galium spurium is 5 (Level 5: the growth inhibition rate is greater than 85%). Besides, the “Activity level (growth inhibition rate) Monochoria Vaginalis” value in the data set on Monochoria vaginalis was 5 (Level 5: the growth inhibition rate is greater than 85%). The “Activity level (growth inhibition rate) Digitaria sanguinalis” value with Digitaria sanguinalis is on record as 5 (Level 5: the growth inhibition rate is greater than 85%). Further, in the data set on Abutilon theophrasti, the “Activity level (growth inhibition rate) Abutilon theophrasti” value is on record as 5 (Level 5: the growth inhibition rate is greater than 85%).

On to `CC(Oc1nc(F)c(Cl)c(N)c1Cl)C(=O)SCc1cccc(Br)c1` (stereo not shown) [Compound 230], for which, in the data set with Echinochloa crusgalli, the “Activity level (growth inhibition rate) Echinochloa crusgalli” value was 5 (Level 5: the growth inhibition rate is greater than 85%). Moreover, the “Activity level (growth inhibition rate) Galium spurium” value in the data set on Galium spurium is 5 (Level 5: the growth inhibition rate is greater than 85%). Moreover, the “Activity level (growth inhibition rate) Monochoria Vaginalis” value with Monochoria vaginalis is reported as 5 (Level 5: the growth inhibition rate is greater than 85%). Also, the “Activity level (growth inhibition rate) Digitaria sanguinalis” value with Digitaria sanguinalis was 5 (Level 5: the growth inhibition rate is greater than 85%). Also, in the data set with Abutilon theophrasti, the “Activity level (growth inhibition rate) Abutilon theophrasti” value was 5 (Level 5: the growth inhibition rate is greater than 85%).

Take `CC(Oc1nc(F)c(Cl)c(N)c1Cl)C(=O)SCc1ccc(Br)cc1` (stereo not shown) [Compound 231]: the “Activity level (growth inhibition rate) Echinochloa crusgalli” value in the data set on Echinochloa crusgalli is listed as 5 (Level 5: the growth inhibition rate is greater than 85%). In addition, the “Activity level (growth inhibition rate) Galium spurium” value with Galium spurium is reported as 5 (Level 5: the growth inhibition rate is greater than 85%). For the same compound, in the data set on Monochoria vaginalis, the “Activity level (growth inhibition rate) Monochoria Vaginalis” value is listed as 5 (Level 5: the growth inhibition rate is greater than 85%). The “Activity level (growth inhibition rate) Digitaria sanguinalis” value in the data set with Digitaria sanguinalis is 5 (Level 5: the growth inhibition rate is greater than 85%). Besides, the “Activity level (growth inhibition rate) Abutilon theophrasti” value in the data set on Abutilon theophrasti is 5 (Level 5: the growth inhibition rate is greater than 85%).

Take `CC(Oc1nc(F)c(Cl)c(N)c1Cl)C(=O)SCc1ccccc1C(F)(F)F` (stereo not shown) [Compound 232]: the “Activity level (growth inhibition rate) Echinochloa crusgalli” value in the data set with Echinochloa crusgalli is 5 (Level 5: the growth inhibition rate is greater than 85%). The “Activity level (growth inhibition rate) Galium spurium” value in the data set on Galium spurium is given as 5 (Level 5: the growth inhibition rate is greater than 85%). In the data set with Monochoria vaginalis, the “Activity level (growth inhibition rate) Monochoria Vaginalis” value is 5 (Level 5: the growth inhibition rate is greater than 85%). In addition, in the data set on Digitaria sanguinalis, the “Activity level (growth inhibition rate) Digitaria sanguinalis” value is recorded as 5 (Level 5: the growth inhibition rate is greater than 85%). Further, in the data set with Abutilon theophrasti, the “Activity level (growth inhibition rate) Abutilon theophrasti” value is listed as 5 (Level 5: the growth inhibition rate is greater than 85%).

Regarding `CC(Oc1nc(F)c(Cl)c(N)c1Cl)C(=O)SCc1cccc(C(F)(F)F)c1` (stereo not shown) [Compound 233], the “Activity level (growth inhibition rate) Echinochloa crusgalli” value in the data set on Echinochloa crusgalli is reported as 5 (Level 5: the growth inhibition rate is greater than 85%). For the same compound, the “Activity level (growth inhibition rate) Galium spurium” value in the data set with Galium spurium is reported as 5 (Level 5: the growth inhibition rate is greater than 85%). Further, the “Activity level (growth inhibition rate) Monochoria Vaginalis” value in the data set on Monochoria vaginalis is given as 5 (Level 5: the growth inhibition rate is greater than 85%). Also, in the data set with Digitaria sanguinalis, the “Activity level (growth inhibition rate) Digitaria sanguinalis” value is on record as 5 (Level 5: the growth inhibition rate is greater than 85%). In addition, in the data set with Abutilon theophrasti, the “Activity level (growth inhibition rate) Abutilon theophrasti” value is given as 5 (Level 5: the growth inhibition rate is greater than 85%).

Take `CC(Oc1nc(F)c(Cl)c(N)c1Cl)C(=O)SCc1ccc(C(F)(F)F)cc1` (stereo not shown) [Compound 234]: in the data set with Echinochloa crusgalli, the “Activity level (growth inhibition rate) Echinochloa crusgalli” value is 5 (Level 5: the growth inhibition rate is greater than 85%). Moreover, the “Activity level (growth inhibition rate) Galium spurium” value with Galium spurium was 5 (Level 5: the growth inhibition rate is greater than 85%). In addition, the “Activity level (growth inhibition rate) Monochoria Vaginalis” value in the data set with Monochoria vaginalis is recorded as 5 (Level 5: the growth inhibition rate is greater than 85%). Also, the “Activity level (growth inhibition rate) Digitaria sanguinalis” value in the data set with Digitaria sanguinalis was 5 (Level 5: the growth inhibition rate is greater than 85%). In the data set with Abutilon theophrasti, the “Activity level (growth inhibition rate) Abutilon theophrasti” value is 5 (Level 5: the growth inhibition rate is greater than 85%).

Consider `CC(Oc1nc(F)c(Cl)c(N)c1Cl)C(=O)SCc1ccccn1` (stereo not shown) [Compound 235], for which the “Activity level (growth inhibition rate) Echinochloa crusgalli” value in the data set on Echinochloa crusgalli is 5 (Level 5: the growth inhibition rate is greater than 85%). Besides, in the data set with Galium spurium, the “Activity level (growth inhibition rate) Galium spurium” value was 5 (Level 5: the growth inhibition rate is greater than 85%). Also, the “Activity level (growth inhibition rate) Monochoria Vaginalis” value in the data set on Monochoria vaginalis is listed as 5 (Level 5: the growth inhibition rate is greater than 85%). In addition, in the data set with Digitaria sanguinalis, the “Activity level (growth inhibition rate) Digitaria sanguinalis” value is listed as 5 (Level 5: the growth inhibition rate is greater than 85%). Further, the “Activity level (growth inhibition rate) Abutilon theophrasti” value with Abutilon theophrasti is reported as 5 (Level 5: the growth inhibition rate is greater than 85%).

In the case of `CC(Oc1nc(F)c(Cl)c(N)c1Cl)C(=O)SCc1ccncc1` (stereo not shown) [Compound 236], the “Activity level (growth inhibition rate) Echinochloa crusgalli” value with Echinochloa crusgalli is listed as 5 (Level 5: the growth inhibition rate is greater than 85%). For the same compound, in the data set on Galium spurium, the “Activity level (growth inhibition rate) Galium spurium” value is 5 (Level 5: the growth inhibition rate is greater than 85%). Further, the “Activity level (growth inhibition rate) Monochoria Vaginalis” value with Monochoria vaginalis is listed as 5 (Level 5: the growth inhibition rate is greater than 85%). Moreover, in the data set on Digitaria sanguinalis, the “Activity level (growth inhibition rate) Digitaria sanguinalis” value is recorded as 5 (Level 5: the growth inhibition rate is greater than 85%). In the data set with Abutilon theophrasti, the “Activity level (growth inhibition rate) Abutilon theophrasti” value is listed as 5 (Level 5: the growth inhibition rate is greater than 85%).

On to `CC(Oc1nc(F)c(Cl)c(N)c1Cl)C(=O)SCc1cccnc1` (stereo not shown) [Compound 237], for which the “Activity level (growth inhibition rate) Echinochloa crusgalli” value with Echinochloa crusgalli is 5 (Level 5: the growth inhibition rate is greater than 85%). In addition, the “Activity level (growth inhibition rate) Galium spurium” value in the data set on Galium spurium was 5 (Level 5: the growth inhibition rate is greater than 85%). For the same compound, the “Activity level (growth inhibition rate) Monochoria Vaginalis” value in the data set with Monochoria vaginalis is 5 (Level 5: the growth inhibition rate is greater than 85%). For the same compound, the “Activity level (growth inhibition rate) Digitaria sanguinalis” value with Digitaria sanguinalis is listed as 5 (Level 5: the growth inhibition rate is greater than 85%). In addition, in the data set with Abutilon theophrasti, the “Activity level (growth inhibition rate) Abutilon theophrasti” value was 5 (Level 5: the growth inhibition rate is greater than 85%).

Consider `CC(Oc1nc(F)c(Cl)c(NCc2ccc(C(F)(F)F)o2)c1Cl)C(=O)SCc1ccccc1` (stereo not shown) [Compound 239], for which the “Activity level (growth inhibition rate) Echinochloa crusgalli” value with Echinochloa crusgalli was 5 (Level 5: the growth inhibition rate is greater than 85%). For the same compound, the “Activity level (growth inhibition rate) Galium spurium” value in the data set with Galium spurium is listed as 5 (Level 5: the growth inhibition rate is greater than 85%). Also, the “Activity level (growth inhibition rate) Monochoria Vaginalis” value in the data set with Monochoria vaginalis was 5 (Level 5: the growth inhibition rate is greater than 85%). For the same compound, the “Activity level (growth inhibition rate) Digitaria sanguinalis” value with Digitaria sanguinalis was 5 (Level 5: the growth inhibition rate is greater than 85%). In addition, the “Activity level (growth inhibition rate) Abutilon theophrasti” value with Abutilon theophrasti is recorded as 5 (Level 5: the growth inhibition rate is greater than 85%).
